For assay [1], the system named is Burkholderia glumae. It counts as in vivo.
Assay [2] relates to Burkholderia glumae. The settings on record: rice, 150 g ai/ha, 1 spray, 29 days after the 1st spray.
Setting [3] is: rice at harvest, 150 g ai/ha, 2 sprays.

Each structure is given as a SMILES string. Read-outs that look alike come from different tables or passages of the source.

Take `N#Cc1ccccc1NC(=O)c1snc(Cl)c1Cl` [Isotianil, isotianil]: the final yield increase result in the assay on Burkholderia glumae [1] (rice, harvest trial, Isotianil treated plots) is given as “about 20%”.

As for `CCC1(C(=O)N[C@H](C)c2ccc(Cl)cc2)C(C)C1(Cl)Cl` (some centres unmarked) [CARPROPAMID], in the assay with Burkholderia glumae [1] (setting [3]), the “Yield (% of untreated)” value was determined as 108% and the “Yield T/ha” value stood at 9.06 T/ha. Besides, the “% efficacy (Abbott), Burkholderia glumae incidence on panicles” value with Burkholderia glumae [1] (rice, 150 g ai/ha, 2 sprays, 44 days after the 2nd spray) came to 43%. Further, the “% efficacy (Abbott), Burkholderia glumae incidence on panicles” value with Burkholderia glumae [2] turned out to be 36%.

Source of the values: US20150011394A1 (priority 2012, published 2015).
